Measured values published in patent publication US20090042905A1, “TRIAZOLE DERIVATIVES AS LIGANDS OF G-PROTEIN COUPLED RECEPTORS” (AETERNA ZENTARIS GmbH, priority 2007, published 2009).
Read-outs that look alike come from different tables or passages of the source.

Key:
[1] = test system: C57BL/6 male mice fed a high-fat diet; assay: Diet-induced obesity (DIO) in mice, subchronic s.c. treatment; format: in vivo, mouse; conditions: for Fat mass / Food efficiency / Lean mass / Σ Fat depots / Body weight gain / Cumulative food intake / Glucose / Insulin: 2 weeks; for Body weight gain / Cumulative food intake: difference day 35 vs day 21; for body weight gain (in words): two weeks of treatment; for Glucose / Insulin: plasma
Method: The effectiveness of selected compounds of the invention, i.e. their subchronic effects, on the energy balance of mice rendered obese by a high-fat diet was investigated.
Adult C57BL/6 male mice were fed ad libitum with either chow or a high-fat diet (60% of the calorie content from fat) for 5 weeks.
C57BL/6 mice fed with a high-fat diet readily develop obesity and represent a widely used model for investigating human obesity.
One-third of the dose was injected in the morning and two-third in the evening.
Body weight and food intake were monitored every day during the experiment. Body composition (lean and fat mass) was assessed using dual energy x-ray absorptiometry (DEXA) on day 0, 13 and 27. Blood was also sampled at sacrifice for the determination of plasma glucose, insulin and triglycerides.

[2] = test system: differentiated 3T3-L1 cells; assay: Inhibition of isoproterenol-induced lipolysis by QRFP, and its antagonism by compounds, in an adipocyte cell line model (glycerol release); format: cell-based, mouse; conditions: for IC50 of QRFP-26 (inhibition of isoproterenol-induced lipolysis), shifted in presence of compound: 100 nM isoproterenol; for effect on the inhibitory effect of QRFP on isoproterenol-induced lipolysis: compound at 10^−9 to 10^−7 M
Method: The effectiveness of compounds of the invention to antagonize the QRFP-induced inhibition of isoproterenol-induced lipolysis was investigated using an adipocyte cell line model.
Cells were then were maintained in DMEM with 10% FBS for 2 days before lipolysis study.
All the cellular assays were performed in triplicate for each time point if not otherwise specified.
Differentiated 3T3-L1 cells were first washed with DMEM and incubated with DMEM containing 200 nM adenosine for 1 h at 37° C. The incubation medium was then removed. The lipolysis was induced by incubating the cells with DMEM supplemented with 2% bovine serum albumin fatty acid free and adenosine deaminase (1 U/mL) containing 100 nM of isoproterenol for 90 min at 37° C. The incubation medium (600 μL) was collected for glycerol assay following triglyceride hydrolysis.
After the incubation period, the incubation medium (600 μL) was collected for free glycerol measurement.
To document the antagonistic effect of compounds of the invention on the antilipolytic effect of QRFP, the dose-response curve of QRFP was carried out as described above in presence of selected compounds of the invention at 10^−9 to 10^−7 M. To document the net effect of QRFP and selected compounds of the invention on lipolysis induced by isoproterenol as control, cells were incubated in absence of isoproterenol in presence of QRFP or selected compounds of the invention at 10^−6 M.
Glycerol released was calculated as μmol/mg of total protein.
Lipolysis index was calculated as: (μmol of glycerol released/mg of protein of sample minus μmol of glycerol released/mg of protein in basal condition)/(μmol of glycerol released/mg of protein induced by 100 nM of isoproterenol minus μmol of glycerol released/mg of protein of basal condition).

male C57BL/6J mice [3] = assay: Fasting-induced feeding behavior (food intake) of mice; format: in vivo; conditions: oral dose 2 μmol per mouse, 30 min before food
Method: The effectiveness of selected compounds of the invention on fasting-induced feeding behavior of mice was investigated.
The experiments were performed according to Asakawa A et al. (Asakawa A et al., Gut 2003, 52: 947-952) with the following technical details:
Preparation of compounds of the invention: dissolved in dimethylsulfoxide (DMSO) and then diluted in distilled water (i.e. 0.5, 1 and 10% DMSO for 0.5, 1 and 2 μmol/mouse, respectively);
Preparation of reference substance (positive control) sibutramine: dissolved in distilled water;
Control substance (negative vehicle control): 10% DMSO in distilled water (compounds of the invention); distilled water (sibutramine);
Route of administration: p.o.;
Pretreatment time: 30 min before presenting the food to the animals;
Volume of administration: 0.5 ml/mouse;
Animals: male C57BL/6J mice;
Body weight range: 18.3-21.4 g

male C57BL/6J mice [4] = assay: as above; format: in vivo; conditions: po
[5] = 6 mg/kg per day and 24 mg/kg per day
[6] = 20 min, read-out: change of food intake - compounds versus vehicle treated negative control, at 20 min
[7] = 1 h, read-out: change of food intake - compounds versus vehicle treated negative control, at 1 h
[8] = 2 h, read-out: change of food intake - compounds versus vehicle treated negative control, at 2 h
[9] = 4 h, read-out: change of food intake - compounds versus vehicle treated negative control, at 4 h

## CC(C)(N)C(=O)N[C@H](Cc1c[nH]c2ccccc12)c1nnc(CCCc2c[nH]c3ccccc23)n1Cc1ccccc1 [Compound 9, (R)-N-(1-(5-(3-(1H-indol-3-yl)propyl)-4-benzyl-4H-1,2,4-triazol-3-yl)-2-(1H-indol-3-yl)ethyl)-2-amino-2-methylpropanamide]
[1]; 1.5 mg/kg per day s.c.
  Fat mass: 7.9 g
  Food efficiency: 1.30 mg/kJ
  Lean mass: 20.2 g
  Σ Fat depots: 1137 mg
  Body weight gain: 1.03 g
  Cumulative food intake: 793 kJ
  Glucose: 14.9 mmol/L
  Insulin: 63.8 pmol/L
[1]; [5]
  size of the fat depots (in words): reduced
  body weight gain (in words): significantly decreased
[1]; 6.0 mg/kg per day s.c.
  Fat mass: 5.8 g
  Food efficiency: 0.25 mg/kJ
  Lean mass: 21.2 g
  Σ Fat depots: 791 mg
  Body weight gain: 0.20 g
  Cumulative food intake: 809 kJ
  Glucose: 15.6 mmol/L
  Insulin: 57.4 pmol/L
[1]; 24 mg/kg per day s.c.
  Fat mass: 5.7 g
  Food efficiency: -0.68 mg/kJ
  Lean mass: 20.5 g
  Σ Fat depots: 792 mg
  Body weight gain: -0.54 g
  Cumulative food intake: 790 kJ
  Glucose: 13.1 mmol/L
  Insulin: 52.0 pmol/L

## CC(C)(N)C(=O)N[C@H](Cc1c[nH]c2ccccc12)c1nnc(Cc2ccccc2)n1Cc1ccccn1 [Compound 39, (R)-N-(1-(5-benzyl-4-(pyridin-2-ylmethyl)-4H-1,2,4-triazol-3-yl)-2-(1H-indol-3-yl)ethyl)-2-amino-2-methylpropanamide]
[2]; compound at 10^−7 M
  IC50 of QRFP-26 (inhibition of isoproterenol-induced lipolysis), shifted in presence of compound: 6.9 nM
[2]; compound at 10^−8 M
  IC50 of QRFP-26 (inhibition of isoproterenol-induced lipolysis), shifted in presence of compound: 6.6 nM
[2]; compound at 10^−9 M
  IC50 of QRFP-26 (inhibition of isoproterenol-induced lipolysis), shifted in presence of compound: 5.6 nM
[2]
  effect on the inhibitory effect of QRFP on isoproterenol-induced lipolysis: non-competitive antagonist effect

## COc1ccc(Cn2c(CCc3ccccc3)nnc2[C@@H](Cc2c[nH]c3ccccc23)NC(=O)CN)cc1 [Compound 50, (R)-N-(1-(4-(4-methoxybenzyl)-5-phenethyl-4H-1,2,4-triazol-3-yl)-2-(1H-indol-3-yl)ethyl)-2-aminoacetamide]
[1]; 1.5 mg/kg per day s.c.
  Fat mass: 7.6 g
  Food efficiency: 1.88 mg/kJ
  Lean mass: 21.3 g
  Σ Fat depots: 1101 mg
  Body weight gain: 1.61 g
  Cumulative food intake: 852 kJ
  Glucose: 15.6 mmol/L
  Insulin: 66.3 pmol/L
[1]; [5]
  body weight gain (in words): significantly decreased
[1]; 6.0 mg/kg per day s.c.
  Fat mass: 8.2 g
  Food efficiency: 1.77 mg/kJ
  Lean mass: 20.4 g
  Σ Fat depots: 1192 mg
  Body weight gain: 1.44 g
  Cumulative food intake: 813 kJ
  Glucose: 15.2 mmol/L
  Insulin: 64.8 pmol/L
[1]; 24 mg/kg per day
  size of the fat depots (in words): reduced
[1]; 24 mg/kg per day s.c.
  Fat mass: 6.3 g
  Food efficiency: -0.05 mg/kJ
  Lean mass: 20.6 g
  Σ Fat depots: 902 mg
  Body weight gain: -0.04 g
  Cumulative food intake: 801 kJ
  Glucose: 15.4 mmol/L
  Insulin: 60.3 pmol/L
Male C57BL/6J mice [3]; [6]
  change in vivo at 2 µmol/mouse: -54%
Male C57BL/6J mice [3]; [7]
  change in vivo at 2 µmol/mouse: -44%
Male C57BL/6J mice [3]; [8]
  change in vivo at 2 µmol/mouse: -44%
Male C57BL/6J mice [3]; [9]
  change in vivo at 2 µmol/mouse: -28%

## COc1ccc(Cn2c(CCc3ccccc3)nnc2[C@@H](Cc2c[nH]c3ccccc23)NC(=O)c2ccccn2)cc1 [Compound 79, (R)-N-(1-(4-(4-methoxybenzyl)-5-phenethyl-4H-1,2,4-triazol-3-yl)-2-(1H-indol-3-yl)ethyl)picolinamide]
[2]; compound at 10^−7 M
  IC50 of QRFP-26 (inhibition of isoproterenol-induced lipolysis), shifted in presence of compound: 124.4 nM
[2]; compound at 10^−9 M
  IC50 of QRFP-26 (inhibition of isoproterenol-induced lipolysis), shifted in presence of compound: 2.829 nM
[2]
  effect on the inhibitory effect of QRFP on isoproterenol-induced lipolysis: antagonist effect

## COc1ccc(Cn2c(CCc3c[nH]c4ccccc34)nnc2[C@@H](Cc2c[nH]c3ccccc23)NC(=O)[C@@H]2C=CCN2)cc1 [Compound 190, (2S)-N-((R)-1-(5-(2-(1H-indol-3-yl)ethyl)-4-(4-methoxybenzyl)-4H-1,2,4-triazol-3-yl)-2-(1H-indol-3-yl)ethyl)-2,5-dihydro-1H-pyrrole-2-carboxamide]
Male C57BL/6J mice [3]; [6]
  change in vivo at 2 µmol/mouse: -39%
Male C57BL/6J mice [3]; [7]
  change in vivo at 2 µmol/mouse: -30%
Male C57BL/6J mice [3]; [8]
  change in vivo at 2 µmol/mouse: -33%
Male C57BL/6J mice [3]; [9]
  change in vivo at 2 µmol/mouse: -30%

## CC(C)CC(N(C)C)C1(c2ccc(Cl)cc2)CCC1 (stereo not drawn) [Sibutramine, 1-(4-chlorophenyl)-N,N-dimethyl-alpha-(2-methylpropyl)-cyclobutane-methanamine]
Male C57BL/6J mice [4]; [6]
  change in vivo at 0.6 µmol/mouse: -63%
Male C57BL/6J mice [4]; [7]
  change in vivo at 0.6 µmol/mouse: -66%
Male C57BL/6J mice [4]; [8]
  change in vivo at 0.6 µmol/mouse: -46%
Male C57BL/6J mice [4]; [9]
  change in vivo at 0.6 µmol/mouse: -21%
